Experimental data from US7199113B2, “Pharmaceutically active compounds and methods of use thereof” (priority 1998, dated 2007).
Read-outs that look alike come from different tables or passages of the source.

Legend:
Format in all cases: biochemical
thrombin = molecular target: T1, thrombin (Homo sapiens, UniProt P00734); experiment: Thrombin activity assay; details: statement on Table 1 (FIG. 2(a))
T1 construct: followed by addition of 10 μl of thrombin (20 nM); purchased Enzyme Research Laboratories Inc
Experimental: For thrombin activity assay, 55 μl of buffer was mixed with 5 μl of DMSO or compound, followed by addition of 10 μl of thrombin (20 nM). Mix and incubate at 37° C. for 10 minutes. Then 10 μl of substrate S-2238 was added and allowed to incubate at 37° C. for 15–20 minutes. Absorbance at 405 nm was then measured and the percent inhibition of thrombin activity was calculated from OD405 nm values in the absence and presence of a compound.

[1] = molecular target: T2, human recombinant TF/VIIa complex (lipidated) (Homo sapiens, UniProt P13726); experiment: TF/VIIa-dependent FX activation assay; details: for outcome of primary and secondary screening (TF antagonism): inhibit FX activation at lower concentrations (<0.1 mM) without significant effects on protease activities; for blocking activity in standard assay for TF/VIIa-dependent factor X activation: statement on FIG. 3
T2 construct: Truncated recombinant human tissue factor (e.g. composed of 243 amino acids) is expressed in E. coli; host or cells: E. coli (TF)
T2 sequence (P13726 33-275 limits assumed): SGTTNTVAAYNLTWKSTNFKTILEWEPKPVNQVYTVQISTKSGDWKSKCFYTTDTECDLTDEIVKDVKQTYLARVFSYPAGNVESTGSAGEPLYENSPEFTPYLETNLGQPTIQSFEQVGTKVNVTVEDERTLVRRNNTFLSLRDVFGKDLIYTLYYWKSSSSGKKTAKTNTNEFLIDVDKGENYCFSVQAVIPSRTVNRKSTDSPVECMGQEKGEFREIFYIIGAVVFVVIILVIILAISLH
T2 sequence (P08709 61-212 partner limits assumed): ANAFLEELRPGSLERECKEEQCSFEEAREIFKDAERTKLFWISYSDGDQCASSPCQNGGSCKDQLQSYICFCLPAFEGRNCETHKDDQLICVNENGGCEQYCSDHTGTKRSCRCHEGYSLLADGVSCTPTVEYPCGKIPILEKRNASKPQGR
T2 sequence (P08709 213-466 partner limits assumed): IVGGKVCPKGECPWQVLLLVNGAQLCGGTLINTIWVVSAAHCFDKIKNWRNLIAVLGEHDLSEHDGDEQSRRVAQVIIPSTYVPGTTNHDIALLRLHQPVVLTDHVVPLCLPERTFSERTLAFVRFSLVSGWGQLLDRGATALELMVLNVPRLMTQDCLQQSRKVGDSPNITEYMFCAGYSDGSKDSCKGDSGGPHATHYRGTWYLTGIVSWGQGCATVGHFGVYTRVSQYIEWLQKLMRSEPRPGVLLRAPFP
Experimental: A more particular example of the primary screening assay discussed previously is as follows. The assay is standard for measuring TF/VIIa-dependent factor X activation. […] In a more preferred embodiment, the primary screening preferably includes the following steps. • 1) admixing in a suitable assay solution about 0.1 nM of human recombinant TF/VIIa complex (lipidated), about 180 nM human FX, and between from about 0.5 μl to about 10 μl of at least one compound to be tested (optionally dissolved in an appropriate vehicle such as water or dimethylsulfoxide (DMSO)) and incubating the reaction at 37° C. for a few minutes up to about an hour or more, • 2) contacting the solution with a suitable chelating agent such as ethylenediaminietetra acetic acid (EDTA) to reduce or stop factor X activation, • 3) contacting the solution with a detectable amount of a chromogenic substrate specific for FXa (e.g., Spectrozyme FXa or S-2765) and incubating same at 37° C.; and • 4) detecting chromophore produced in the solution as being indicative of the factor X activation.
The primary screening for compounds that inhibit tissue factor/factor VIIa (TF/VIIa) is based on TF/VIIa-dependent FX activation assay (See flow chart in FIG. 1 of the drawings). In this assay, the ability of TF/VIIa complex to activate FX is determined in two discontinuous stages. […] In the second stage (FXa activity assay), EDTA is added at indicated times to the FX activation mixture to chelate calcium, thus leading to the termination of FX→FXa conversion. Calcium is required for TF/VIIa activity. The activity of FXa is then measured by FXa-specific chromogenic substrates such as S-2222, S-2765, or Spectrozyme FXa. In the primary screening, compounds from a previously prepared chemical library are first tested at relatively high concentrations (˜0.833 mM) in TF/VIIa-dependent FX activation assay to identify hits of potential TF pathway antagonists (see FIG. 1). However, it is evident that the inhibition of TF/VIIa-dependent FX activation by a compound in this enzyme-coupled assay can be attributed to effects of the compound on TF/VIIa and/or FXa activities. Thus, secondary screening tests are designed to determine how inhibition takes place and the inhibition mechanism. In secondary screening experiments, effects of those compounds identified from primary screening are tested on catalytic activities of factor VIIa (FVIIa), factor IXa (FIXa), factor Xa (FXa), thrombin, Russell's viper venom (RVV), and trypsin.
Primary screening was done in duplicate in 96-well plates using the TF/VIIa-dependent FX activation assay. All compounds to be screened were dissolved in dimethyl sulfoxide (DMSO), other reagents were prepared or diluted in 25 mM HEPES-NaOH, 5 mM CaCl2, 150 mM NaCl, 0.1% BSA, pH 7.5. For assays where TF was used, purified human recombinant TF (100 nM) was first lipidated with phosphatidylcholine (0.07 mg/ml) and phosphatidylserine (0.03 mg/ml) in 50 mM Tris-HCl, pH 7.5, 0.1% bovine serum albumin (BSA) for 30 minutes at 37° C. A stock solution of TF/VIIa complex was then prepared by combining equal volumes of 100 nM lipidated TF and 100 nM FVIIa The complex was incubated at 37° C. for 30 minutes and then was aliquoted and stored at −70° C. for future uses.
For screening assays, 5 μl of each compound (about 10 mM in DMSO) or DMSO were placed in each well of a 96-well plate, followed by adding 45 μl of TF/VIIa complex (0.1 nM). The components in each well were mixed either with pipette tips or by shaking the plate on a Lab-Line titer plate shaker for 30 seconds. After 15 minutes incubation of the plate at a 37° C., 10 μl of human FX (180 nM) was added to each well and mixed as above. The plate was then incubated at 37° C. for 3 to 15 minutes, followed by addition of 10 μl of EDTA (400 mM in 144 mM HEPES, 864 mM NaCl, 0.576% BSA, pH adjusted to 7.5) to each well to terminate FX activation. […]

[2] = molecular target: Russell's viper venom (RVV) (Daboia siamensis, UniProt Q7LZ61)
Chain of Russell's viper venom (RVV) (Q7LZ61 whole entry, looked up): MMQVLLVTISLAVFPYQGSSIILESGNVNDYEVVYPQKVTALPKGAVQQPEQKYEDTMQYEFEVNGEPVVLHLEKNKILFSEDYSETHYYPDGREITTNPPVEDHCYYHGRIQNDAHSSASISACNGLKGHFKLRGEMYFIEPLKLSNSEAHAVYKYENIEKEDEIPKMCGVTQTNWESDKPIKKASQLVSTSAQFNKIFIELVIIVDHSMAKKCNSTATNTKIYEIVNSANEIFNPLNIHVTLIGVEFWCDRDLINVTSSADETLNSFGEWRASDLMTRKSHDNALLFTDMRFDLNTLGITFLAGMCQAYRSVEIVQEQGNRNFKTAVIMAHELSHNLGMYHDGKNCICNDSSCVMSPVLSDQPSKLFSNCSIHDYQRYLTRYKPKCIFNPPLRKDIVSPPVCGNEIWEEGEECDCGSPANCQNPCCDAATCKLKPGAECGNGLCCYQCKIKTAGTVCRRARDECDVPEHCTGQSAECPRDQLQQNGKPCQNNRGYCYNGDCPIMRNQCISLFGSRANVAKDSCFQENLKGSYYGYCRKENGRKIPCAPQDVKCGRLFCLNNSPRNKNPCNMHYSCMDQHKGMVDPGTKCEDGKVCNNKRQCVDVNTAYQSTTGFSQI

[3] = titration, data of Table 3 (FIG. 2(c)), primary screening method, read-out: IC50 (inhibitor concentration at which 50% of TF/VIIa-dependent FX activation is inhibited)

SMILES	inhibition of thrombin activity (thrombin)	IC50 ([1]; compound preincubated with TF/VIIa 15 minutes at 37° C. prior to FX, FX 30 nM, read-out: IC50, TF/VIIa-dependent FX activation)	outcome of primary and secondary screening (TF antagonism) [1]	effect on apparent Km values for FX substrate ([1]; kinetic analysis, FIG. 5)	mode of inhibition of TF/VIIa complex ([1]; kinetic analysis, FIG. 5)	blocking activity in standard assay for TF/VIIa-dependent factor X activation [1]	IC50 [1, 3]	inhibition of RVV-dependent FX activation [2]
O=P(O)(O)C(CNc1cccc(O)c1)P(=O)(O)O [Compound 1, 1-(bisphosponate)-2-amino(3-hydroxyphenyl)ethyl]	do not inhibit thrombin activity	12.5 µM	strong TF antagonists	significantly increased	competitive inhibitor	good blocking activity	19 µM	do not inhibit RVV catalytic activity
O=P(O)(O)C(CNc1ccc(O)cc1)P(=O)(O)O [Compound 2]	do not inhibit thrombin activity	–	strong TF antagonists	–	–	good blocking activity	9.7 µM	do not inhibit RVV catalytic activity
